Laboratory results reported in ChEMBL document CHEMBL2396607 (Bioorg Med Chem Lett, 2013).

Key:
[1] = target: T1, Phosphatidylinositol 4,5-bisphosphate 3-kinase catalytic subunit alpha isoform (Homo sapiens, UniProt P42336); assay: Inhibition of N-terminal myristoylated P110alpha (unknown origin)-mediated AKT phosphorylation at Ser473 expressed in rat Rat1 cells by ELISA; type: cell-based
[2] = target: T2, Phosphatidylinositol 4,5-bisphosphate 3-kinase catalytic subunit beta isoform (Homo sapiens, UniProt P42338); assay: Inhibition of N-terminal myristoylated P110beta (unknown origin)-mediated AKT phosphorylation at Ser473 expressed in rat Rat1 cells by ELISA; type: cell-based
T2 sequence (P42338 whole entry, canonical isoform): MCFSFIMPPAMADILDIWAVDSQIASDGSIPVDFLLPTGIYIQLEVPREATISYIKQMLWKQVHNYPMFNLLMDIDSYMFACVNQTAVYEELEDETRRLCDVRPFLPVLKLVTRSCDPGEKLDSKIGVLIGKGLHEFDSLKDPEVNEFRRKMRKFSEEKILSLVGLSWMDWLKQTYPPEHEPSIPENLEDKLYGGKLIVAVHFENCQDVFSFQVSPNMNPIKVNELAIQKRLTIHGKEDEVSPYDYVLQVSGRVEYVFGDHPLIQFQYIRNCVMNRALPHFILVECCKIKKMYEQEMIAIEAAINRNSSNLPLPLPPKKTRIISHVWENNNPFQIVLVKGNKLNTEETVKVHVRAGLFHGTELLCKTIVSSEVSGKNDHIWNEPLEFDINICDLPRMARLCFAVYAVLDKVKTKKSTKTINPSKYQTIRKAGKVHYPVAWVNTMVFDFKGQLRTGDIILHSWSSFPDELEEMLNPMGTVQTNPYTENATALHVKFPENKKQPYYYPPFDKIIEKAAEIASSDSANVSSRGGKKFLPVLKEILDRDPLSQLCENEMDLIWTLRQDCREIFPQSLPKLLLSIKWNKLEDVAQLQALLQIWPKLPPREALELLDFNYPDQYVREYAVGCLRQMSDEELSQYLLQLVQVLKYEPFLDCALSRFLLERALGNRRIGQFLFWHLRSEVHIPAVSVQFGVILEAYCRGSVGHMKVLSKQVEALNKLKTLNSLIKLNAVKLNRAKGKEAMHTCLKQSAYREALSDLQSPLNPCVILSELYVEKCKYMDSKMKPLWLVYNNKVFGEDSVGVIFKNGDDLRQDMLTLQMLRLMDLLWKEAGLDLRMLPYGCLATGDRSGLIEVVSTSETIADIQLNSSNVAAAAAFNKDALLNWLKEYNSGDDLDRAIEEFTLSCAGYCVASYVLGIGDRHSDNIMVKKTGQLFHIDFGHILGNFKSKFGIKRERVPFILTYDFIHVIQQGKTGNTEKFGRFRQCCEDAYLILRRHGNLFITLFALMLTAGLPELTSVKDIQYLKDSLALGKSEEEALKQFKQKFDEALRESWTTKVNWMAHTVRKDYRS

[3] = target: T3, Phosphatidylinositol 4,5-bisphosphate 3-kinase catalytic subunit delta isoform (Homo sapiens, UniProt O00329); assay: Inhibition of N-terminal myristoylated P110delta (unknown origin)-mediated AKT phosphorylation at Ser473 expressed in rat Rat1 cells by ELISA; type: cell-based
T3 sequence (O00329 whole entry): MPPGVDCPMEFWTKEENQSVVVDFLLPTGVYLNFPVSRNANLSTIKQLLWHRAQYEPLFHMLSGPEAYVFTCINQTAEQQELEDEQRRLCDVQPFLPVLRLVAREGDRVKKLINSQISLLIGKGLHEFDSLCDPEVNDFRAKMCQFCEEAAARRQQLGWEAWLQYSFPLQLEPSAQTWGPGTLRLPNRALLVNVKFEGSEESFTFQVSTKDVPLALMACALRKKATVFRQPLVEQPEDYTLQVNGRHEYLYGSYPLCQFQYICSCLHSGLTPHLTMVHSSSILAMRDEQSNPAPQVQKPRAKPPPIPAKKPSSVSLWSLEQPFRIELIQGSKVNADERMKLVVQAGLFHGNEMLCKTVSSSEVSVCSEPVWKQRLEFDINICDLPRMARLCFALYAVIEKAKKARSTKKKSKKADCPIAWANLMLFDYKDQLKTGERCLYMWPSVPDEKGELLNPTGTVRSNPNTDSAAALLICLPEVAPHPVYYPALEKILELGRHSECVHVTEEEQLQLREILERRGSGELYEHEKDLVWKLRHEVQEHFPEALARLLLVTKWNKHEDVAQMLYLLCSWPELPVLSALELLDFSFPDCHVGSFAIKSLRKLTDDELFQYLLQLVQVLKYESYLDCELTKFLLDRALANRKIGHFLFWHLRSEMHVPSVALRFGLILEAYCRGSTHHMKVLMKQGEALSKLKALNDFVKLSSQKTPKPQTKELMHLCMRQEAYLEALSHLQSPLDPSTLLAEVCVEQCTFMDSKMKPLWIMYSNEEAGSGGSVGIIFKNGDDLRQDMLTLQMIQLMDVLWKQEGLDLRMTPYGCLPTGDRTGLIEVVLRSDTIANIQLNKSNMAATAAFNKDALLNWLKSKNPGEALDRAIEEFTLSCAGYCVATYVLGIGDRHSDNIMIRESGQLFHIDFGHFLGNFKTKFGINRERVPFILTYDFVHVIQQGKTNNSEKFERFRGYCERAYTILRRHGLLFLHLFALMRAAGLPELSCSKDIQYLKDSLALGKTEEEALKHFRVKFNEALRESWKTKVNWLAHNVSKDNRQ

[4] = Volume of distribution at steady state in Sprague-Dawley rat at 1 mg/kg, iv; type: ADME, organism-based; parameters: dose 1 mg/kg, route intravenous; conditions: in vivo, read-out: Vdss
Cytochrome P450 3A4 = Cytochrome P450 3A4 (Homo sapiens, UniProt P08684); assay: Inhibition of CYP3A4 (unknown origin); type: ADME
Chain of Cytochrome P450 3A4 (P08684 whole entry): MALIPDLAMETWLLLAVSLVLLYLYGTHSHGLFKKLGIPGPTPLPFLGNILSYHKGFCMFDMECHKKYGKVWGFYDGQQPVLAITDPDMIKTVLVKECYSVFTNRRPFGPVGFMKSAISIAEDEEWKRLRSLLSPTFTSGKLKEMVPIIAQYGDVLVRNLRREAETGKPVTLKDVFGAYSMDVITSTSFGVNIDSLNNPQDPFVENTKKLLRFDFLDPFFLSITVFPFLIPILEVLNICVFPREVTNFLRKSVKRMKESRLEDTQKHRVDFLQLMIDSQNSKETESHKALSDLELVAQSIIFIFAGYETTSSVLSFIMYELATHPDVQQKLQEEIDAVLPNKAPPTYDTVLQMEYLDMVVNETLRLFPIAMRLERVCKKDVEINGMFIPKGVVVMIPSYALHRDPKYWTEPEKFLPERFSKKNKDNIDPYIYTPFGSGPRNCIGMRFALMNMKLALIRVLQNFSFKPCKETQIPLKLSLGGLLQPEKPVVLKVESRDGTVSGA

[5] = Clearance in Sprague-Dawley rat at 1 mg/kg, iv; type: ADME, organism-based; parameters: dose 1 mg/kg, route intravenous; conditions: in vivo
[6] = Clearance in rat liver microsomes in presence of cofactor for glucuronyl transferases; type: ADME, Microsome; conditions: read-out: CLH
[7] = Plasma protein binding in Sprague-Dawley rat at 1 mg/kg, iv; type: ADME, organism-based; parameters: dose 1 mg/kg, route intravenous; conditions: read-out: PPB (converted)
[8] = Half life in Sprague-Dawley rat at 1 mg/kg, iv; type: ADME, organism-based; parameters: dose 1 mg/kg, route intravenous; conditions: in vivo
[9] = target: Phosphatidylinositol 4,5-bisphosphate 3-kinase catalytic subunit gamma isoform (Homo sapiens, UniProt P48736); assay: Inhibition of P110gamma (unknown origin) using PIP2:PS as substrate by TR-FRET assay
Chain of Phosphatidylinositol 4,5-bisphosphate 3-kinase catalytic subunit gamma isoform (P48736 whole entry, canonical isoform): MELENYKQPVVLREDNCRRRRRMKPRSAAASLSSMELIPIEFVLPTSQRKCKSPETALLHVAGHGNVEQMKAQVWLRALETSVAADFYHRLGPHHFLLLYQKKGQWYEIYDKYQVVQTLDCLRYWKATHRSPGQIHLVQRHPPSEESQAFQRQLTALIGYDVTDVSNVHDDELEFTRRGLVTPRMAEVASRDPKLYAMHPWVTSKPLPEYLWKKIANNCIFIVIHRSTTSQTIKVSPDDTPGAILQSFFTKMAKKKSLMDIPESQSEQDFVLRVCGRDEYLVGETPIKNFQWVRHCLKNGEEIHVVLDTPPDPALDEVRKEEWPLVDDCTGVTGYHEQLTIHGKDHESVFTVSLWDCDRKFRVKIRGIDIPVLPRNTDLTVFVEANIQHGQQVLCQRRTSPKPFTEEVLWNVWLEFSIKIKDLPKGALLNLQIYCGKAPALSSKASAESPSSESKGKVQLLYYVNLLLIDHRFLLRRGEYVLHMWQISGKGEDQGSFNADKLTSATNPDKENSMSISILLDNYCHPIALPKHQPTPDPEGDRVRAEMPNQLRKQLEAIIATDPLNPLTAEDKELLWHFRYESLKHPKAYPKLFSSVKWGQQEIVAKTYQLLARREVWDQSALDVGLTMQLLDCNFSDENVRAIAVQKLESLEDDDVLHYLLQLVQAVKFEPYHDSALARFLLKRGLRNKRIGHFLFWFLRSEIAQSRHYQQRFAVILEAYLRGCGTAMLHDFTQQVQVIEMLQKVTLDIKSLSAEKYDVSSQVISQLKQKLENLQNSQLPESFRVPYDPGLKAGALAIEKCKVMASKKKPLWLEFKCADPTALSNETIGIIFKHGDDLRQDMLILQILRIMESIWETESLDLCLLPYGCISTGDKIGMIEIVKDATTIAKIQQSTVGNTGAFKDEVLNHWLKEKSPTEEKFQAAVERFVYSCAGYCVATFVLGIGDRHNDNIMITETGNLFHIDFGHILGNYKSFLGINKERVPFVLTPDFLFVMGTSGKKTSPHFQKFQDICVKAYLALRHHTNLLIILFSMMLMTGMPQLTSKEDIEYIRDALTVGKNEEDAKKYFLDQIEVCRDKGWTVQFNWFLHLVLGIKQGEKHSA

[10] = target: T3, Phosphatidylinositol 4,5-bisphosphate 3-kinase catalytic subunit delta isoform; assay: Inhibition of P110delta (unknown origin) using PIP2:PS as substrate by TR-FRET assay
[11] = target: T1, Phosphatidylinositol 4,5-bisphosphate 3-kinase catalytic subunit alpha isoform; assay: Inhibition of P110alpha (unknown origin) using L-a-phosphatidylinositol as substrate by luminescence assay
[12] = target: T2, Phosphatidylinositol 4,5-bisphosphate 3-kinase catalytic subunit beta isoform; assay: Inhibition of P110beta (unknown origin) using L-a-phosphatidylinositol as substrate by luminescence assay
[13] = Clearance in rat liver microsomes; type: ADME, Microsome; conditions: read-out: CLH
[14] = Cmax in dog at 0.6 mg/kg, po; type: ADME, organism-based, Canis lupus familiaris; parameters: dose 0.6 mg/kg, route oral; conditions: in vivo
[15] = target: Serine-protein kinase ATM (Homo sapiens, UniProt Q13315); assay: Inhibition of ATM (unknown origin) phosphorylation at Ser1981 by cell-based assay
[16] = Oral bioavailability in dog at 0.6 mg/kg; type: ADME, organism-based, Canis lupus familiaris; conditions: in vivo
[17] = Cmax in mouse at 3 mg/kg, po; type: ADME, organism-based; parameters: dose 3 mg/kg, route oral; conditions: in vivo
[18] = Clearance in dog at 0.1 mg/kg, iv and 0.6 mg/kg, po; type: ADME, organism-based, Canis lupus familiaris; conditions: in vivo
[19] = target: DNA-dependent protein kinase catalytic subunit (Homo sapiens, UniProt P78527); assay: Inhibition of DNA-PK (unknown origin)
[20] = Cmax in rat at 15 mg/kg, po; type: ADME, organism-based; parameters: dose 15 mg/kg, route oral; conditions: in vivo
[21] = target: Serine/threonine-protein kinase mTOR (Homo sapiens, UniProt P42345); assay: Inhibition of mTOR (unknown origin)
[22] = target: Phosphatidylinositol 3-kinase catalytic subunit type 3 (Homo sapiens, UniProt Q8NEB9); assay: Inhibition of VPS34 (unknown origin)
Chain of Phosphatidylinositol 3-kinase catalytic subunit type 3 (Q8NEB9 whole entry): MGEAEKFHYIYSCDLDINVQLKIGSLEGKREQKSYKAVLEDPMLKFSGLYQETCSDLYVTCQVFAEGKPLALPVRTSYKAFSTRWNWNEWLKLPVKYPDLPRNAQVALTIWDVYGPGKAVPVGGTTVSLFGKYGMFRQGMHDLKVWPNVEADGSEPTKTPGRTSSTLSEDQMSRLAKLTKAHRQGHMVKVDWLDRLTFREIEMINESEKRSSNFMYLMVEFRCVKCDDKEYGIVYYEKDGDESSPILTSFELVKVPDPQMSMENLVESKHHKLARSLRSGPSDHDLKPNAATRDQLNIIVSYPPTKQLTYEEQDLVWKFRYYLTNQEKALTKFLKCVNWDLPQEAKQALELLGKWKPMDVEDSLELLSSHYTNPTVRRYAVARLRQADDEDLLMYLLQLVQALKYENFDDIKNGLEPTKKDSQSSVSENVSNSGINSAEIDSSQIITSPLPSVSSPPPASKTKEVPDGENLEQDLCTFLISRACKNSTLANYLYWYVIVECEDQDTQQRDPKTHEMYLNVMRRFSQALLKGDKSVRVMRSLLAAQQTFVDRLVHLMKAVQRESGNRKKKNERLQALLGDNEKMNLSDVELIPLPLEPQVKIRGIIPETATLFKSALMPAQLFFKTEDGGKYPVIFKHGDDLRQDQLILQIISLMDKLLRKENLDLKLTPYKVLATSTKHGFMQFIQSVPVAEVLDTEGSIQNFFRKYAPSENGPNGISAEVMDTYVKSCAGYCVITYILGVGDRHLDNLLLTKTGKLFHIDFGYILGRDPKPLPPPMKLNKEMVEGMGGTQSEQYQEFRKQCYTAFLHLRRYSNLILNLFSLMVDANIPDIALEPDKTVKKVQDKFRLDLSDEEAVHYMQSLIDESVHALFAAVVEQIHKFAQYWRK

[23] = Clearance in rat at 3.4 mg/kg, iv and 15 mg/kg, po; type: ADME, organism-based; conditions: in vivo
[24] = Clearance in mouse at 1 mg/kg, iv and 3 mg/kg, po; type: ADME, organism-based; conditions: in vivo
[25] = Oral bioavailability in mouse at 3 mg/kg; type: ADME, organism-based; conditions: in vivo
[26] = target: Serine/threonine-protein kinase ATR (Homo sapiens, UniProt Q13535); assay: Inhibition of ATR (unknown origin)

T1 sequence (P42336 whole entry, canonical isoform): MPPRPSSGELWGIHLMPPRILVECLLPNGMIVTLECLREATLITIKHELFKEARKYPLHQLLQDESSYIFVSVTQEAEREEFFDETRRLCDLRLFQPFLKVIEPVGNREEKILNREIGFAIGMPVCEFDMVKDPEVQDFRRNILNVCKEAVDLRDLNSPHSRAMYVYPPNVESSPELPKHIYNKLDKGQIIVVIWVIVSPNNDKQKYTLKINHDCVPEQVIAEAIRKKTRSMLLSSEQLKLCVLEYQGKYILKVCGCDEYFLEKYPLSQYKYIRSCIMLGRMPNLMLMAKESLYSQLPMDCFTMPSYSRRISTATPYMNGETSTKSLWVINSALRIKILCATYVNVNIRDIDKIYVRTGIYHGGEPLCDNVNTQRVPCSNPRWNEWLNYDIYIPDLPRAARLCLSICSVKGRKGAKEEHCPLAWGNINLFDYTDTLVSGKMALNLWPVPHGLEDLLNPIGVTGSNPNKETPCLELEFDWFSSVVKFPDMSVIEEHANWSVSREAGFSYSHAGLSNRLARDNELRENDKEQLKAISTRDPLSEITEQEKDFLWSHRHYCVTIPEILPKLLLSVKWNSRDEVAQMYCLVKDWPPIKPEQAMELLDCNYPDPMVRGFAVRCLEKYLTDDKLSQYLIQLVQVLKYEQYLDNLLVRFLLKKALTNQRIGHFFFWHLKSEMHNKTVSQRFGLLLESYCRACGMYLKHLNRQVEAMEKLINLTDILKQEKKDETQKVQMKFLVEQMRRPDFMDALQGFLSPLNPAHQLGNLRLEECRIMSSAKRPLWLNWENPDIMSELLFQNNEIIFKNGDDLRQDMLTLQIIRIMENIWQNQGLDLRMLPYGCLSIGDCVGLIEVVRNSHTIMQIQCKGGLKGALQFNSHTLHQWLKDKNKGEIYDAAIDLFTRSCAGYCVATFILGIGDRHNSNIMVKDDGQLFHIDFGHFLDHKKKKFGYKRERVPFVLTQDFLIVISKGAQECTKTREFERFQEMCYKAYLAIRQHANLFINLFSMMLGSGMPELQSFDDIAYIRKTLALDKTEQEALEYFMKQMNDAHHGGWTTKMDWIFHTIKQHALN

Structure (SMILES) | IC50 [1] [µM] | IC50 [2] [µM] | IC50 [3] [µM] | IC50 (Cytochrome P450 3A4) [µM] | microsomal CLint [6] [µL/min/mg] | IC50 [9] [µM] | IC50 [10] [µM] | IC50 [11] [µM] | IC50 [12] [µM] | microsomal CLint [13] [µL/min/mg] | other results
Cc1nc(NC(=O)N2CCC[C@H]2C(N)=O)sc1-c1ccc(-n2cccn2)cc1 | 0.13 | 2.1 | 0.62 | – | – | – | – | – | – | – | –
Cc1nc(NC(=O)N2CCC[C@H]2C(N)=O)sc1-c1ccnc(C(C)(C)C)n1 | – | – | – | > 10 | 62 | – | – | – | – | – | Vd [4]: 1.2 L/kg; clearance [5]: 21 mL/min/kg; fraction unbound [7]: 0.06; half-life [8]: 1.2 h
Cc1nc(NC(=O)N2CCC[C@H]2C(N)=O)sc1-c1ccnc(C(C)(C)C)c1 | – | 8 | 0.72 | > 10 | 77 | 0.43 | 0.33 | – | – | – | Vd [4]: 1.4 L/kg; clearance [5]: 39 mL/min/kg; half-life [8]: 3.4 h
CNC(=O)[C@@H]1CCCN1C(=O)Nc1nc(C)c(-c2ccnc(C(C)(C)C)c2)s1 | > 10 | > 10 | 5.8 | – | 104 | 4.6 | 4.2 | 2.7 | > 9.1 | – | –
Cc1nc(NC(=O)N2CCCC2)sc1-c1ccnc(C(C)(C)C)c1 | 2.5 | > 10 | 0.77 | – | 186 | 0.93 | 0.59 | 0.62 | 4.9 | – | –
Cc1nc(NC(=O)N2CCC[C@@H]2C(N)=O)sc1-c1ccnc(C(C)(C)C)c1 | – | – | – | – | 36 | > 10 | 3.3 | – | 8.2 | – | –
Cc1nc(NC(=O)N2CC[C@H]2C(N)=O)sc1-c1ccnc(C(C)(C)C)n1 | 0.23 | 6.4 | 1.6 | – | – | 0.32 | 0.29 | 0.019 | 1.2 | 44 | –
Cc1nc(NC(=O)N2CCC[C@H]2C(N)=O)sc1-c1ccnc(C2(C#N)CC2)c1 | 0.64 | > 10 | > 10 | > 10 | – | 1.1 | 2 | – | – | 41 | –
Cc1nc(NC(=O)N2CCC[C@H]2C(N)=O)sc1-c1ccnc(C(C)C)n1 | 0.1 | 5.9 | 1.3 | > 10 | – | 1.4 | 0.96 | 0.016 | 4 | 36 | –
Cc1nc(NC(=O)N2CCC[C@H]2C(N)=O)sc1-c1ccnc(C2CCC2)n1 | 0.44 | 7.3 | > 10 | > 10 | – | 0.61 | 0.69 | 0.02 | 1.8 | 53 | –
Cc1nc(NC(=O)N2CCC[C@H]2C(N)=O)sc1-c1cc(C(C)C)ncn1 | 4.6 | > 10 | > 10 | – | – | – | – | 0.32 | > 9.1 | – | –
CC(C)(c1cc(-c2cnc(NC(=O)N3CCC[C@H]3C(N)=O)s2)ccn1)C(F)(F)F | 0.14 | 2.4 | 2.9 | > 10 | – | 0.83 | 1.1 | 0.0095 | – | 27 | –
CC(C)(c1cc(-c2sc(NC(=O)N3CCC[C@H]3C(N)=O)nc2Cl)ccn1)C(F)(F)F | 0.34 | > 10 | 4.9 | – | – | 1.4 | 0.43 | – | – | 17 | –
CCN(CC)c1nccc(-c2sc(NC(=O)N3CCC[C@H]3C(N)=O)nc2C)n1 | 0.17 | 4.4 | 2.5 | – | – | 0.41 | 0.34 | – | – | 96 | –
Cc1nc(NC(=O)N2CCC[C@H]2C(N)=O)sc1-c1ccnc(C2(C)CC2)n1 | – | 9.6 | 3 | > 10 | – | 0.69 | 0.81 | – | 3.1 | 47 | Vd [4]: 0.9 L/kg; clearance [5]: 8 mL/min/kg; fraction unbound [7]: 0.029; half-life [8]: 1.7 h
Cc1nc(NC(=O)N2CCC[C@H]2C(N)=O)sc1-c1ccnc(C(C)(C)C(F)(F)F)c1 [ALPELISIB] | – | – | – | – | – | – | – | – | – | – | Cmax [14]: 1070 nM; Vd [4]: 1.9 L/kg; IC50 [15]: > 10 µM; bioavailability [16]: 140%; Cmax [17]: 520 nM; clearance [18]: 8 mL/min/kg; IC50 [19]: > 9.1 µM; clearance [5]: 10 mL/min/kg; Cmax [20]: 190 nM; IC50 [21]: > 9.1 µM; IC50 [22]: > 9.1 µM; clearance [23]: 10 mL/min/kg; clearance [24]: 8 mL/min/kg; fraction unbound [7]: 0.057; bioavailability [25]: 106%; half-life [8]: 2.9 h; IC50 [26]: > 9.1 µM
